Measurements published in patent US11332463B2, “Spiropiperidine allosteric modulators of nicotinic acetylcholine receptors” (Merck Sharp & Dohme Corp., priority 2018, dated 2022).
Where two headings read alike, the source gives them in different places.

Biological target: T1, human α7 nicotinic acetylcholine receptor (HEK cell line stably expressing human RIC-3 and human α7) (Homo sapiens, UniProt P36544)
T1 construct: host or cells: HEK cell line (PrecisION hnAChR α7/RIC-3)
Assay: Automated patch-clamp electrophysiology functional assay (Assay A), IonFlux HT, whole-cell population patch
Format: cell-based

[1] = HEK cells expressing human α7/RIC-3, test compound with or without 40 μM acetylcholine, holding potential −60 mV, room temperature, read-out: α7 nAChR Potency
[2] = automated patch-clamp electrophysiology functional assay (Assay A), read-out: α7 nAChR EC50
[3] = α7 nAChR EC50 (nM), automated patch-clamp electrophysiology functional assay (Assay A)
[4] = α7 nAChR Potency, HEK cells expressing human α7/RIC-3, test compound with or without 40 μM acetylcholine, holding potential −60 mV, room temperature

T1 sequence (P36544 23-502): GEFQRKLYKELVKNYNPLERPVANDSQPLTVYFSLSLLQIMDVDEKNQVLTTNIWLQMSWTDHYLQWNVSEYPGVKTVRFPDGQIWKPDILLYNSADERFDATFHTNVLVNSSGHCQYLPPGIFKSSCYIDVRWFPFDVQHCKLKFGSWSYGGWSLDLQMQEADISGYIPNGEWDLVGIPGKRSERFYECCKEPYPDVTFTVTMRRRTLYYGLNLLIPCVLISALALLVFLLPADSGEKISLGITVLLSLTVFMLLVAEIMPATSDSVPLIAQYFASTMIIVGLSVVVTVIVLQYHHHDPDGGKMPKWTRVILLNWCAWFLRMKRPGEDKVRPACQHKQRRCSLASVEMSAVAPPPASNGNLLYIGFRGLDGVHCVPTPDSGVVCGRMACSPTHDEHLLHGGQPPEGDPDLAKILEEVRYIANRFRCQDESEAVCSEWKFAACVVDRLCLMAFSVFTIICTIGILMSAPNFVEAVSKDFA

SMILES | EC50 [1] [nM] | EC50 [2] [nM] | EC50 [3] [nM] | EC50 [4] [nM]
Cc1ccccc1-c1nnc([C@@H]2CC23CCN(S(N)(=O)=O)CC3)s1 [Example F8] | 500 to 5000 | 750 |  | 
NS(=O)(=O)N1CCC2(CC1)C[C@H]2c1nnc(-c2ccc(F)cc2C(F)(F)F)s1 [Example F9] | 500 to 5000 | 750 |  | 
NS(=O)(=O)N1CCC2(CC1)C[C@H]2c1nnc(-c2cccc(OC(F)F)c2)s1 [Example F10] |  |  | 450 | 100 to 500
Cc1onc(C2CC2)c1-c1nnc([C@@H]2CC23CCN(S(N)(=O)=O)CC3)o1 [Example F11] |  |  | 410 | 100 to 500
Cc1onc(C2CC2)c1-c1nnc([C@@H]2CC23CCN(S(N)(=O)=O)CC3)s1 [Example F12] | 500 to 5000 | 850 |  | 
Cc1ccccc1-c1nnc([C@@H]2C(F)(F)C23CCN(S(N)(=O)=O)CC3)o1 [Example F13] | 100 to 500 | 400 |  | 
Cc1ccccc1-c1nnc([C@@H]2C(F)(F)C23CCN(S(N)(=O)=O)CC3)s1 [Example F14] | 100 to 500 | 290 |  | 
NS(=O)(=O)N1CCC2(CC1)C[C@H]2c1nc(-c2ccccc2)co1 [Example G1] | 500 to 5000 | 4000 |  | 
NS(=O)(=O)N1CCC2(CC1)C[C@H]2c1csc(-c2conc2C2CC2)n1 [Example G2] | 500 to 5000 | 910 |  | 
Cc1noc(C)c1-n1cc([C@@H]2CC23CCN(S(N)(=O)=O)CC3)cn1 [Example G3] | 500 to 5000 |  |  | 
NS(=O)(=O)N1CCC2(CC1)[C@H](c1csc(-c3conc3C3CC3)n1)C2(F)F [Example G4] | 100 to 500 | 110 |  | 
NS(=O)(=O)N1CCC2(CC1)[C@H](c1ncc(-c3ccc(F)cc3C(F)(F)F)o1)C2(F)F [Example G5] | < 100 | 91 |  | 
NS(=O)(=O)N1CCC2(CC1)[C@H](c1cc(-c3ccnc(OC(F)F)c3)no1)C2(F)F [Example G6] | < 100 | 86 |  | 
Cn1cc(-c2conc2C2CC2)nc1[C@@H]1C(F)(F)C12CCN(S(N)(=O)=O)CC2 [Example G7] | 500 to 5000 | 1600 |  | 
NS(=O)(=O)N1CCC2(CC1)[C@H](c1cc(-c3conc3C3CC3)no1)C2(F)F [Example G8] | < 100 | 16 |  | 
NS(=O)(=O)N1CCC2(CC1)[C@H](c1cc(-c3ccc(F)cc3C(F)(F)F)on1)C2(F)F [Example G9] | < 100 | 78 |  | 
NS(=O)(=O)N1CCC2(CC1)[C@H](c1nc(-c3ccc(F)cc3C(F)(F)F)co1)C2(F)F [Example G10] | < 100 | 28 |  | 
NS(=O)(=O)N1CCC2(CC1)[C@H](c1cc(-c3ccc(F)cc3C(F)(F)F)ns1)C2(F)F [Example G11] | 100 to 500 | 120 |  | 
COc1ccc(Cl)cc1-c1noc([C@H]2CC23CCN(S(N)(=O)=O)CC3)n1 [Example H1] | 5000 to 50000 |  |  | 
NS(=O)(=O)N1CCC2(CC1)[C@@H](c1nc(-c3ccc(F)cc3C(F)(F)F)no1)C2(F)F [Example H2] | 500 to 5000 | 2900 |  | 
NS(=O)(=O)N1CCC2(CC1)[C@@H](c1nc(C3CCCCC3)no1)C2(F)F [Example H3] | 500 to 5000 | 4500 |  | 
NS(=O)(=O)N1CCC2(CC1)[C@@H](c1nc(-c3cccc(F)c3)no1)C2(F)F [Example H4] | 500 to 5000 | 1200 |  | 
Cc1ccccc1-c1noc([C@H]2C(F)(F)C23CCN(S(N)(=O)=O)CC3)n1 [Example H5] | 500 to 5000 |  |  | 
Cc1ccccc1-c1nnc([C@H]2C(F)(F)C23CCN(S(N)(=O)=O)CC3)s1 [Example H6] | 500 to 5000 | 3400 |  | 
NS(=O)(=O)N1CCC2(C(F)C1)C(c1nc(-c3ccc(F)cc3C(F)(F)F)no1)C2(F)F (stereo not shown) [Example I15] | 500 to 5000 | 1400 |  | 
NS(=O)(=O)N1CCC2(C(F)C1)C(c1nc(-c3ccc(F)cc3C(F)(F)F)no1)C2(F)F (stereo not shown) [Example I16] | 500 to 5000 | 2100 |  | 
NS(=O)(=O)N1CCC2(C(F)C1)C(c1nc(-c3ccc(F)cc3C(F)(F)F)no1)C2(F)F (stereo not shown) [Example I17] | 500 to 5000 |  |  | 
NS(=O)(=O)N1CCC2(C(F)C1)C(c1nc(-c3ccc(F)cc3C(F)(F)F)no1)C2(F)F (stereo not shown) [Example I18] | 100 to 500 | 320 |  | 
